From patent US12599672B2, “KRAS proteolysis targeting chimeras” (PAQ Therapeutics Inc., priority 2023, dated 2026) come the findings set out here.

Type in all cases: cell-based
The target of one assay is T1, KRAS G12V (Homo sapiens, UniProt P01116, G12V).
T1 construct: SW620-KRAS (G12V)-HiBit-KI cell (Pharmaron); host or cells: SW620-KRAS (G12V)-HiBit-KI cells (HiBiT knock-in at the endogenous KRAS locus)
As to the kind of experiment: KRAS G12V HiBit assay. The note with it: SW620-KRAS (G12V)-HiBit-KI cells, compound treatment for 24 hours. In short, it runs like this:
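HiBiT-tagged KRAS G12V cells treated 24 h with compound in a 3-fold, 10-point series (0.3 mM DMSO stock); lytic HiBiT reagent with LgBiT added after 15 min room-temperature equilibration. Degradation calculated against 0.1% DMSO high control.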

The target in a further assay is T2, KRAS G12D (Homo sapiens, UniProt P01116, G12D).
T2 construct: AsPc-1-KRAS (G12D)-HiBit-KI cell (Pharmaron); host or cells: AsPc-1-KRAS (G12D)-HiBit-KI cells (HiBiT knock-in at the endogenous KRAS locus)
In words: KRAS G12D HiBit assay. The note with it: AsPc-1-KRAS (G12D)-HiBit-KI cell, compound treatment for 24 hours; for DC50: absolute DC50. A digest of the protocol: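 Cells were treated for 24 h with compounds in a 3-fold, 10-point dilution series from a 0.3 mM DMSO stock, then equilibrated 15 min at room temperature. KRAS G12D HiBiT levels were read by luminescence after lytic Nano-Glo HiBiT reagent with LgBiT; inhibition calculated relative to 0.1% DMSO high control.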

The next assay has as its target T3, KRAS (Homo sapiens, UniProt P01116).
T3 construct: endogenous in cells; host or cells: KE39 (KRAS amplified) cells
As to the kind of experiment: KRASamp MSD assay. The conditions noted are these: KE39 (KRAS amplified) cells, treated with test compounds for 24 hr, MSD readout of KRAS degradation. A digest of the protocol: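 KRAS-amplified KE39 cells treated with compound for 24 hr, then lysed in RIPA buffer with protease/phosphatase inhibitors. KRAS protein measured by MSD sandwich immunoassay against a recombinant WT KRAS standard curve; DC50 derived from curve fitting of degradation.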

Where [1] appears, read: numeric bounds given in place of class symbols.

Some results are limits rather than exact numbers.

T1 sequence (P01116 1-188 isoform P01116-2 G12V): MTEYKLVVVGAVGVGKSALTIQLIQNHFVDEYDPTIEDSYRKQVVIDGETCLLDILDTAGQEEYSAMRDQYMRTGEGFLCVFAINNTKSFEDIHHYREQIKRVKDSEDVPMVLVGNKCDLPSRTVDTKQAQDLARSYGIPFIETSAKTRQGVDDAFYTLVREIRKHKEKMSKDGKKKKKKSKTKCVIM
T3 sequence (P01116 1-188 isoform P01116-2): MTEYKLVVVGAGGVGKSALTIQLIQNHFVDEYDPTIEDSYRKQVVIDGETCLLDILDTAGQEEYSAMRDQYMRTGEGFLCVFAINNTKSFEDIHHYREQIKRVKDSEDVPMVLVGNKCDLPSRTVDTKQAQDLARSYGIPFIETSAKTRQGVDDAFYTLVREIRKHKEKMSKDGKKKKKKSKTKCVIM
T2 sequence (P01116 1-188 isoform P01116-2 G12D): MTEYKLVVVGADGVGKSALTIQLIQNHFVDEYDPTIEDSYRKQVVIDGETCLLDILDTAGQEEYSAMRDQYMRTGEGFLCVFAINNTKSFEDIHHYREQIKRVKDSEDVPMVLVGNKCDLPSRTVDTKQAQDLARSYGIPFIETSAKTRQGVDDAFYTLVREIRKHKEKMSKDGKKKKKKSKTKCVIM

As for `CCc1c(F)ccc2cc(O)cc(-c3ncc4c(N5CCC[C@@](C)(O)C5)nc(OC[C@@]56CCCN5[C@H](COC(=O)N5CCC7(CCC(CN8CCC(c9ccc%10c(c9)n(C)c(=O)n%10C9CCC(=O)NC9=O)CC8)CC7)CC5)CC6)nc4c3F)c12` (stereo partly drawn) [Compound 466, ((3S,7aS)-7a-(((7-(8-ethyl-7-fluoro-3-hydroxynaphthalen-1-yl)-8-fluoro-4-((R)-3-hydroxy-3-methylpiperidin-1-yl)pyrido[4,3-d]pyrimidin-2-yl)oxy)methyl)hexahydro-1H-pyrrolizin-3-yl)methyl 9-((4-(1-(2,6-dioxopiperidin-3-yl)-3-methyl-2-oxo-2,3-dihydro-1H-benzo[d]imidazol-5-yl)piperidin-1-yl)methyl)-3-azaspiro[5.5]undecane-3-carboxylate], the DC50 was less than 0.01 µM on KRAS G12V (class symbols), less than 0.1 µM on KRAS G12D (class symbols) and less than 0.001 µM on KRAS.
The corresponding values for `CCc1c(F)ccc2cc(O)cc(-c3ncc4c(N5CCC[C@@](C)(O)C5)nc(OC[C@]56CCCN5[C@H](COC(=O)NC5CCN(c7cccc8c7n(C)c(=O)n8C7CCC(=O)NC7=O)CC5)CC6)nc4c3F)c12` (stereo partly drawn) [Compound 311, ((3S,7aR)-7a-(((7-(8-ethyl-7-fluoro-3-hydroxynaphthalen-1-yl)-8-fluoro-4-((R)-3-hydroxy-3-methylpiperidin-1-yl)pyrido[4,3-d]pyrimidin-2-yl)oxy)methyl)hexahydro-1H-pyrrolizin-3-yl)methyl (1-(1-(2,6-dioxopiperidin-3-yl)-3-methyl-2-oxo-2,3-dihydro-1H-benzo[d]imidazol-4-yl)piperidin-4-yl)carbamate] are more than 0.1 µM, less than 0.1 µM and not below 0.01 µM.
With `C#Cc1c(F)ccc2cc(O)cc(-c3ncc4c(N5CCC[C@@](C)(O)C5)nc(OCC5(CN6CCC7(CC6)CC(N6CCC(c8cccc9c(C%10CCC(=O)NC%10=O)nn(C)c89)CC6)C7)CC5)nc4c3F)c12` (stereo partly shown) [Compound 69], the DC50 is less than 0.01 µM on KRAS G12V (class symbols), less than 0.1 µM at KRAS G12D (class symbols) and less than 0.001 µM at KRAS.
The corresponding values for `C#Cc1cc(F)cc2cc(O)cc(-c3ncc4c(N5CCC[C@@](C)(O)C5)nc(OC[C@@]56CCCN5[C@H](COC(=O)N5CCC(CN7CCC(c8ccc9c(c8)n(C)c(=O)n9C8CCC(=O)NC8=O)CC7)CC5)CC6)nc4c3F)c12` (stereo partly drawn) [Compound 405, ((3S,7aS)-7a-(((7-(8-Ethynyl-6-fluoro-3-hydroxynaphthalen-1-yl)-8-fluoro-4-((R)-3-hydroxy-3-methylpiperidin-1-yl)pyrido[4,3-d]pyrimidin-2-yl)oxy)methyl)hexahydro-1H-pyrrolizin-3-yl)methyl 4-((4-(1-(2,6-dioxopiperidin-3-yl)-3-methyl-2-oxo-2,3-dihydro-1H-benzo[d]imidazole-5-yl)piperidin-1-yl)methyl) piperidine-1-carboxylate] are 0.01 to 0.1 µM, less than 0.1 µM and 0.001 to 0.01 µM.
Taken in the same sequence, the figures for `CCc1c(F)ccc2cc(O)cc(-c3ncc4c(N5CCCOCC5)nc(OC[C@@]56CCCN5[C@H](COC(=O)N5CCC7(CC5)CC(N5CCC(c8ccc9c(c8)n(C)c(=O)n9C8CCC(=O)NC8=O)CC5)C7)CC6)nc4c3F)c12` (stereo partly drawn) [Compound 489, ((3S,7aS)-7a-(((7-(8-ethyl-7-fluoro-3-hydroxynaphthalen-1-yl)-8-fluoro-4-(1,4-oxazepan-4-yl)pyrido[4,3-d]pyrimidin-2-yl)oxy)methyl)hexahydro-1H-pyrrolizin-3-yl)methyl 2-(4-(1-(2,6-dioxopiperidin-3-yl)-3-methyl-2-oxo-2,3-dihydro-1H-benzo[d]imidazol-5-yl)piperidin-1-yl)-7-azaspiro[3.5]nonane-7-carboxylate] were less than 0.01 µM, less than 0.1 µM and less than 0.001 µM.
Taken in the same sequence, the figures for `C#Cc1c(F)ccc2cc(O)cc(-c3ncc4c(N5CCC[C@@](C)(O)C5)nc(OC[C@@]56CCCN5[C@H](COC(=O)N5CCC(OC7CCN(c8ccc9c(c8)n(C)c(=O)n9C8CCC(=O)NC8=O)CC7)CC5)CC6)nc4c3F)c12` (stereo partly drawn) [Compound 155, ((3S,7aS)-7a-(((7-(8-Ethynyl-7-fluoro-3-hydroxynaphthalen-1-yl)-8-fluoro-4-((R)-3-hydroxy-3-methylpiperidin-1-yl)pyrido[4,3-d]pyrimidin-2-yl)oxy)methyl)hexahydro-1H-pyrrolizin-3-yl)methyl 4-((1-(1-(2,6-dioxopiperidin-3-yl)-3-methyl-2-oxo-2,3-dihydro-1H-benzo[d]imidazol-5-yl)piperidin-4-yl)oxy)piperidine-1-carboxylate] were less than 0.01 µM, less than 0.1 µM and less than 0.001 µM.
For the compound `C#Cc1c(F)ccc2cc(O)cc(-c3ncc4c(N5CCC[C@@](C)(O)C5)nc(OC[C@@]56CCCN5[C@H](COC(=O)N5CCC(CN7CCC(c8ccc9c(c8)n(C)c(=O)n9C8CCC(=O)NC8=O)CC7)CC5)CC6)nc4c3F)c12` (stereo partly drawn) [Compound 4, [(3S,8S)-8-[[7-(8-Ethynyl-7-fluoro-3-hydroxy-1-naphthyl)-8-fluoro-4-[(3R)-3-hydroxy-3-methyl-1-piperidyl]pyrido[4,3-d]pyrimidin-2-yl]oxymethyl]-1,2,3,5,6,7-hexahydropyrrolizin-3-yl]methyl4-[[4-[1-(2,6-dioxo-3-piperidyl)-3-methyl-2-oxo-benzimidazol-5-yl]-1-piperidyl]methyl]piperidine-1-carboxylate], the values for the DC50 on KRAS G12V (class symbols), on KRAS G12D (class symbols) and on KRAS were less than 0.01 µM, less than 0.1 µM and less than 0.001 µM, respectively. The “Average Dmax” value at KRAS G12D (class symbols) is recorded as “A (Dmax greater than 50%)”.
Turning to `CCc1c(F)ccc2cc(O)cc(-c3ncc4c(N5CCC[C@@](C)(O)C5)nc(OC[C@]56CCCN5[C@H](COC(=O)N5CCC(Oc7ccc8c(c7)n(C)c(=O)n8C7CCC(=O)NC7=O)CC5)CC6)nc4c3F)c12` (stereo partly drawn) [Compound 330, ((3S,7aR)-7a-(((7-(8-ethyl-7-fluoro-3-hydroxynaphthalen-1-yl)-8-fluoro-4-((R)-3-hydroxy-3-methylpiperidin-1-yl)pyrido[4,3-d]pyrimidin-2-yl)oxy)methyl)hexahydro-1H-pyrrolizin-3-yl)methyl 4-((1-(2,6-dioxopiperidin-3-yl)-3-methyl-2-oxo-2,3-dihydro-1H-benzo[d]imidazol-5-yl)oxy)piperidine-1-carboxylate], the results for the DC50 at KRAS G12V (class symbols), on KRAS G12D (setting [1]) and on KRAS were more than 0.1 µM, more than 0.1 µM and 0.001 to 0.01 µM, respectively.
Consider `CCc1c(F)ccc2cc(O)cc(-c3ncc4c(N5CCC[C@@](C)(O)C5)nc(OC[C@]56CCCN5[C@H](COC(=O)N5CCC(CCCOc7ccc8c(c7)n(C)c(=O)n8C7CCC(=O)NC7=O)CC5)CC6)nc4c3F)c12` (stereo partly drawn) [Compound 302, ((3S,7aR)-7a-(((7-(8-ethyl-7-fluoro-3-hydroxynaphthalen-1-yl)-8-fluoro-4-((R)-3-hydroxy-3-methylpiperidin-1-yl)pyrido[4,3-d]pyrimidin-2-yl)oxy)methyl)hexahydro-1H-pyrrolizin-3-yl)methyl 4-(3-((1-(2,6-dioxopiperidin-3-yl)-3-methyl-2-oxo-2,3-dihydro-1H-benzo[d]imidazol-5-yl)oxy)propyl)piperidine-1-carboxylate], for which the results for the DC50 at KRAS G12V (class symbols), on KRAS G12D (setting [1]) and at KRAS were less than 0.01 µM, more than 0.1 µM and less than 0.001 µM, respectively.
Take `C#Cc1c(F)ccc2cccc(-c3ncc4c(N5CCC[C@@](C)(O)C5)nc(OCC5(CN6CC7(C6)CN(c6ccc8c(c6)n(C)c(=O)n8C6CCC(=O)NC6=O)C7)CC5)nc4c3F)c12` (stereo partly shown) [Compound 31]: the DC50 at KRAS G12V (class symbols) is more than 0.1 µM; on KRAS G12D (class symbols), more than 0.3 µM; on KRAS, not below 0.01 µM.
For `CCc1c(F)ccc2cc(O)cc(-c3ncc4c(N5CCC[C@@](C)(O)C5)nc(OC[C@]56CCCN5[C@H](CN5CCC(OCCCc7ccc8c(c7)n(C)c(=O)n8C7CCC(=O)NC7=O)CC5)CC6)nc4c3F)c12` (stereo partly drawn) [Compound 444, 3-(5-(3-((1-(((3S,7aR)-7a-(((7-(8-Ethyl-7-fluoro-3-hydroxynaphthalen-1-yl)-8-fluoro-4-((R)-3-hydroxy-3-methylpiperidin-1-yl)pyrido[4,3-d]pyrimidin-2-yl)oxy)methyl)hexahydro-1H-pyrrolizin-3-yl)methyl)piperidin-4-yl)oxy)propyl)-3-methyl-2-oxo-2,3-dihydro-1H-benzo[d]imidazol-1-yl) piperidine-2,6-dione], the figures for the DC50 on KRAS G12V (numeric bounds), at KRAS G12D (class symbols) and at KRAS were more than 0.0785 µM, less than 0.1 µM and 0.001 to 0.01 µM, respectively.
